What was measured:
[1] = system: JAK2V617F; assay: JAK2V617F-induced myelofibrosis mouse model; type: in vivo, BALB/c mice; details: 30 mg/Kg, oral twice a day, after 8 weeks of treatment
Text: JAK2 mutant JAK2V617F gene vector MSCV-JAK2V617F-GFP (Chengdu Wandao Biotechnology Development Co., Ltd.) and BALB/c mice (Jiangsu Jicui Yaokang Biotechnology Co., Ltd.) were provided as donors. The mouse bone marrow cells were sampled and infected with JAK2V617F virus, and the infected cells were reinfused into BALB/c recipient mice irradiated by X-rays through tail vein. Then, the JAK2V617F-positive myelofibrosis mouse model was induced. […] The administration route was oral administration twice a day, and the mice in the blank control group and the model group took the same volume of normal saline orally. […] Therefore, modifications or improvements made without departing from the spirit of the present invention are within the scope of protection of the present invention.

[2] = system: Ba/F3-EpoR-JAK2V617F cells; assay: Ba/F3-EpoR-JAK2V617F-driven malignant tumor mouse model; type: in vivo, Babl/c-nude mice; details: 30 mg/Kg, oral twice a day
Protocol: Babl/c-nude mice (Beijing Huafukang Biotechnology Co., Ltd.) were received and acclimated to the environment until these mice were normalized in diet and activity, and the modeling began. Ba/F3-EpoR-JAK2V617F cells (State Key Laboratory of Biotherapy, Sichuan University) were routinely incubated and grew to 80% fusion degree. Then the cells were centrifuged at 1000 rpm for 3 min., collected, resuspended by PBS and counted by a cell counter; while the survival rate of the cells was calculated. Only when the proportion of living cells exceeds 90%, can the cells be used in the experiment, with the cell concentration adjusted to 1×10^7 cells/mL. After the cells were collected, the cell suspension was pre-cooled on ice. Each mouse was inoculated as per 1.0×10^6, and batch induction modeling was carried out.

## Cc1cnc(Nc2ccc(OCCN3CCCC3)cc2)nc1Nc1cccc(S(=O)(=O)NC(C)(C)C)c1 [Fedratinib, reference compound]
[1]
  inhibition of growth rate of spleen: 29.46%
[2]
  inhibition of spleen growth: 40.23%
